The values that follow come from patent US3939263A, “Methods of combatting insects and acarina using oxygenated derivatives of S-(tert-bulythio)methyl O,O-diethyl phosphorodithioate and phosphorothioate” (priority 1974, dated 1976).

In data set [1] the test system is Cotton Boll Weevil. In words: Cotton Boll Weevil, treated cotton cotyledon, 2-day mortality. The data set is classed as in vivo, Anthonomus grandis Boheman. Particulars: 48 h, 2 days, read-out: % Kill, Cotton Boll Weevil. How it is done:
Cotton Boll Weevil -- Anthonomus grandis Boheman
A cotton plant with cotyledons expanded is dipped for 3 seconds with agitation in 35/65% aqueous acetone mixture containing 100 ppm. of test compound and set in the hood to dry. One cotyledon is removed from the plant and placed in a 4-inch petri dish containing a moist filter paper on the bottom and 10 adult weevils. After 2 days at 80°F., and 50% r.h., mortality counts are made, prodding each insect to distinguish dead ones from those "playing dead."

The subject of data set [2] is Southern Corn Rootworm. The data set is described as follows: Soil Insecticide test, Southern Corn Rootworm. The class given is in vivo, Diabrotica undecimpunctata howardi Barber. Particulars: 144 h, 6 days, read-out: % Kill, Soil Insecticide, Southern Corn Rootworm; for mortality at 1 ppm: 1 ppm in soil; for mortality at 10 ppm: 10 ppm in soil; for mortality at 100 ppm: 100 ppm in soil. As for the experimental part: Southern Corn Rootworm -- Diabrotica undecimpunctata howardi Barber
[…] Twelve and one-half milliliters of Littleton silt loam soil and 1 milliliter of millet seed (food for larvae) are added, the jars capped and the contents thoroughly mixed about 2 minutes on a rotary tumbler. Each jar then receives 5 ml. of tap water and ten southern corn rootworm larvae (Diabrotica undecimpunctata howardi Barber) 6 to 8 days old. The jars are loosely capped and placed in the holding room at 26.7°C. and 60% r.h. with constant light. Mortality counts are made after 6 days. Corrected percent mortality data is recorded on standard forms.

In data set [3] the test system is Tarnished Plant Bug. In words: Tarnished Plant Bug, treated cotton leaf, 2-day mortality. The data set is classed as in vivo, Lygus Lineolaris (Palisot de Beauvois). To be noted: Lygus lineolaris, 48 h, 2 days, read-out: % Kill, Tarnished Plant Bug. How it is done: Tarnished Plant Bug -- Lygus Lineolaris (Palisot de Beauvois)
A cotton plant with two true leaves expanded is dipped for 3 seconds with agitation in a 35/65% water/acetone mixture containing 100 ppm. of test compound and set in the hood to dry. One leaf is removed and placed in an 8-ounce waxed cup containing a wet 2-inch dental wick and 10 adult tarnished plant bugs, and a clear plastic lid is snapped on. After 2 days at 80°F., 50% r.h., mortality counts are made.

Data set [4] has as its system Cotton Boll Weevil. In words: Soil Systemic Insecticide test on cotton, Cotton Boll Weevil. To be noted: 48 h; 100 ppm in soil; cotton leaves after three weeks; 2 days; read-out: % Kill, Systemic Insecticide, Cotton Boll Weevil. The data set is classed as in vivo, Anthonomus grandis Boheman. How it is done:
(§1) Soil Systemic Insecticide Tests
(§2) Corn and cotton seed (three seeds each) are planted in treated soil (containing about 100 ppm. of the compound). Thirty milliliters of treated soil are placed in a peat container 5 × 5 × 5.5 cm., and three seeds each of corn and cotton planted. The containers are filled with an additional 30 ml. of treated soil. The treatments are removed to the greenhouse maintained about 26°C. without supplementary light. Water is supplied as needed. After three weeks, foliage of the corn is clipped and placed in glass petri dishes (90 mm. × 10 mm.) with moist filter (9 cm. Whatman No. 1) paper and ten third-instar southern armyworm (Spodoptera eridania Cramer) larvae about 8 mm. long. The dishes are covered and placed in the holding room with constant light at 26.7°C. and 60% r.h. for 2 days, when mortality counts are made.
The cotyledonary leaves of the cotton are clipped after three weeks and placed in glass petri dishes (90 mm. × 10 mm.) with moist filter (9 cm. Whatman No. 1) paper and ten adult boll weevils (Anthonomus grandis Boheman). The dishes are covered, placed in the holding room with constant light at 26.7°C. and 60% r.h. for 2 days, when mortality counts are made.

The test system of data set [5] is Southern Armyworm. The data set is described as follows: Soil Systemic Insecticide test on corn, Southern Armyworm. Particulars: Spodoptera eridania, 48 h; 100 ppm in soil; corn foliage after three weeks; 2 days; read-out: % Kill, Systemic Insecticide, Southern Armyworm. The data set is classed as in vivo, Spodoptera eridania Cramer. As for the experimental part:
as §1, §2

The test system of data set [6] is Housefly. In words: Housefly feeding test in sugar water. To be noted: Musca domestica; 5 ppm in sugar water; counts after 1 day and 3 days; read-out: % Kill, Housefly. The data set is classed as in vivo, Musca domestica Linneaus. How it is done:
Housefly -- Musca domestica Linneaus
Groups of 25 adult female houseflies three to 5 days old are lightly anesthetized with CO2, placed in wide-mouthed pint mason jars, and covered with a screen cap. The test compound is a 100 ppm. 35/65% water/acetone solution. Two milliliters of this is pipetted into a 10-dram vial and diluted to 40 ml. with 10% sugar solution, giving a final concentration of 5 ppm. in sugar water. The mouth of the vial is covered with a single layer of cheesecloth, inverted and placed on the screen cap of the fly jar, so that the flies can feed on the solution through the screen. Mortality counts are made after 1 day and 3 days at 80°F., 50% r.h.

Data set [7] has as its system mice. The data set is described as follows: Mammalian toxicity, LD50 in mice. The data set is classed as in vivo, male albino mice of the CFI strain. Particulars: versus O,O-diethyl S-(tert-butylsulfinyl)methyl phosphorodithioate. As for the experimental part: For the tests reported in Table II, 20 male albino mice of the CFI strain, weighing approximately 18 grams to 20 grams are selected. The phosphates are readied for administration by preparing a solution or dispersion in corn oil (Mazola), the concentration of which is adjusted so that the total volume of the dose is 0.5 ml./kg. in every case. The initial solution is prepared by deciding upon the maximum dosage in mg./kg. to be administered and preparing 10 ml. of this solution of such a concentration that the desired dosage in mg./kg. is delivered when 0.5 ml. of the solution is administered for 20 grams of mouse body weight. Serial dilutions differing by a factor of two are then prepared for each lower dosage level. LD50 stands for the lethal dose in mg./kg. which kills 50% of the mice.

The subject of data set [8] is insects. The data set is described as follows: Insecticidal activity compared with art compound. To be noted: versus O,O-diethyl S-(tert-butylsulfinyl)methyl phosphorodithioate. The class given is in vivo.

With `CCOP(=O)(OCC)SC[S+]([O-])C(C)(C)C` (stereo not drawn) [O,O-diethyl S-(tert-butylsulfinyl)methyl Phosphorothioate], the mortality at 100 ppm in data set [1] was found to be 90%; in data set [2] it was 100%; in data set [3] it was 100%; in data set [4], 100%; in data set [5], 100%. Moreover, the mortality at 1 ppm in data set [2] came out at 61%. Moreover, the mortality at 10 ppm in data set [2] was 100%. Further, in data set [6], the mortality at 5 ppm came to 100%.
As to `CCOP(=S)(OCC)SC[S+]([O-])C(C)(C)C` (stereo not drawn) [O,O-diethyl S-(tert-butylsulfinyl)methyl phosphorodithioate, reference compound], the mortality at 100 ppm in data set [1], in data set [2], in data set [3], in data set [4] and in data set [5] was 100% in each case. The mortality at 1 ppm in data set [2] is 95%. Also, the mortality at 10 ppm in data set [2] stood at 100%. Moreover, the mortality at 5 ppm in data set [6] came out at 100%.
For `CCOP(=S)(OCC)SCS(=O)(=O)C(C)(C)C` [O,O-diethyl S-(tert-butylsulfonyl)methyl Phosphorodithioate], the mortality at 100 ppm in data set [1] is 90%; in data set [2], 100%; in data set [3], 100%; in data set [4] it was 90%; in data set [5], 0%. Also, in data set [2], the mortality at 1 ppm is 100%. In data set [2], the mortality at 10 ppm is 100%. Also, in data set [7], the “toxicity to mammals (mice) relative to art compound” value is on record as “much less toxic to mammals (mice) than the art compound”. Also, in data set [8], the “insecticidal activity relative to art compound” value is “equal to, and in some cases superior to, this art compound”. The mortality at 5 ppm in data set [6] turned out to be 100%.
As to `CCOP(=O)(OCC)SCS(=O)(=O)C(C)(C)C` [O,O-diethyl S-(tert-butylsulfonyl)methyl Phosphorothioate], the mortality at 100 ppm in data set [1] came out at 90%; in data set [2], 100%; in data set [3], 100%; in data set [4], 100%; in data set [5], 100%. Moreover, in data set [2], the mortality at 1 ppm was found to be 0%. Further, the mortality at 10 ppm in data set [2] is 100%. Further, the mortality at 5 ppm in data set [6] is 100%.
